Assay results: patent publication US7932050B2, “Enzymatic substrates derived from phenoxazinone and their use as developers in detection of microorganisms with peptidase activity” (bioMerieux, priority 2004, dated 2011)

Assays:
Format in all cases: cell-based
[1] = tested on: Pseudomonas aeruginosa; experiment: Detection of pyroglutamyl peptidase activity (example 10), colony coloration; conditions: between 24 and 48 h of incubation, no accession No.
[2] = tested on: Burkholderia cepacia GI LMG1222; experiment: as above; conditions: between 24 and 48 h of incubation; strain LMG1222
[3] = tested on: Burkholderia cepacia GIII LMG 18832; experiment: as above; conditions: between 24 and 48 h of incubation; strain LMG 18832
[4] = tested on: Acinetobacter baumannii ATCC 19606; experiment: as above; conditions: between 24 and 48 h of incubation; strain ATCC 19606
[5] = tested on: Acinetobacter calcoaceticus; experiment: as above; conditions: between 24 and 48 h of incubation
[6] = tested on: Pseudomonas fluorescens; experiment: as above; conditions: between 24 and 48 h of incubation
[7] = tested on: Pseudomonas fragilis NCIMB 8987; experiment: as above; conditions: between 24 and 48 h of incubation; strain NCIMB 8987
[8] = tested on: Pseudomonas maltophilia; experiment: as above; conditions: between 24 and 48 h of incubation
[9] = tested on: Ralstonia basilensis; conditions: between 24 and 48 h of incubation
[10] = tested on: Ralstonia taiwanensis; conditions: between 24 and 48 h of incubation
[11] = first P. aeruginosa strain of table 3 (r6)
[12] = second P. aeruginosa strain of table 3 (r8)
[13] = third P. aeruginosa strain of table 3 (r10)

Row | SMILES | coloration [1, 11] | coloration [1, 12] | coloration [1, 13] | coloration [2] | coloration [3] | coloration [4] | coloration [5] | coloration [6] | coloration [7] | coloration [8] | coloration [9] | coloration [10]
1 | CCCCCc1cc(=O)cc2oc3cc(NC(=O)[C@@H]4CCC(=O)N4)ccc3nc1-2 [Nonchlorinated pyroglutamyl compound, 7-N-(L-pyroglutamyl)amino-1-pentylphenoxazin-3-one] | purple | purple | purple | yellow | yellow | colorless | colorless | colorless | colorless | colorless | colorless | colorless
2 | CCCCCc1c2nc3ccc(NC(=O)[C@@H]4CCC(=O)N4)cc3oc-2cc(=O)c1Cl [Chlorinated pyroglutamyl compound, 7-N-(L-pyroglutamyl)amino-2-chloro-1-pentylphenoxazin-3-one] | purple | purple | purple | yellow | yellow | colorless | colorless | colorless | colorless | colorless | colorless | colorless
